We go through three substances from patent publication US20160000883A1, “COMBINATION OF ACYLATED GLUCAGON ANALOGUES WITH INSULIN ANALOGUES” (ZEALAND PHARMA A/S, priority 2011, published 2016).

Experiment [1] relates to db/db (BKS.Cg-m+/+Lepr^db/J) female mice. Nature of the experiment: 21-day s.c. treatment of db/db mice: body weight, food and water intake. The experiment is classed as in vivo. The note with it: 21 days, bi-daily s.c., Lantus 3 U, Levemir 6 U, Compound X 10 nmol/kg, vs. vehicle (FIG. 1). From the text: Eighty (80) db/db (BKS.Cg-m+/+Lepr^db/J) female mice aged 7 weeks were obtained from Charles River, US. The mice were acclimatized in their new environment and allowed free access to normal chow (Altromin 1324, Brogaarden A/S, Gentofte, Denmark) and domestic quality tap water added citric acid to pH ˜3.6, except as indicated. The mice were group-housed with 3-4 mice per cage in a light-, temperature-, and humidity-controlled room (12-hour light: 12-hour dark cycle, with lights on at 06.00 AM to 06.00 PM hour; 24° C.; 50% relative humidity).
Prior to treatment, in weeks 1-3, a tail-blood sample for the determination of blood glucose was obtained on non-fasted animals to determine diabetic state and to identify outliers, which were excluded. The inclusion criteria of BG>16 mM glucose was applied.
Stratification of the animals was based on HbA1c levels (primary) and BW as measured at baseline (day −4). Thus, on day −3, the 66 mice were selected based on the pre-screen and baseline measurements into 6 study groups of 11 mice (3-4 mice/cage).
All mice were mock treated for at 3 days (BID, SC, 100 μl vehicle) to acclimatize the animals to handling and injections. Dosing (day 0, mice at age 12 weeks as in pilot study) started in the afternoon on that day, and the mice were treated twice daily with 2 SC injections according to Table 1 for a total of 21 days (4 injections per day). Thus, last day of dosing was day 21 in the morning. The daily injections took place between 7:00 and 8:00 and between 14:00 and 15:00 with fresh solutions prepared in the morning (only Compound X). […]
Dosing solutions of Compound X for the weekend were prepared the Friday before. […] Throughout the study (day −2 to day 21) body weights (8W) were recorded daily and used to administer the body weight-corrected doses of substances. Food and water intake (FI, WI) was measured every day (day −3 to day 21) as cage averages.
In Vivo: female db/db mice aged 10-11 weeks were treated for 21 days with bi-daily s.c. injections. […] Fasting blood glucose (BG) was measured before and after 21 days of treatment.

The test system is the same in experiment [2]. Nature of the experiment: 21-day s.c. treatment of db/db mice: fasting blood glucose (delta-BG). It counts as in vivo. The note with it: fasted female db/db mice, over 21 days of bi-daily s.c. treatment; Lantus 3 U, Levemir 6 U, Compound X 10 nmol/kg; average +/- SEM (FIG. 4). Here is the method:
All mice were mock treated for at 3 days (BID, SC, 100 μl vehicle) to acclimatize the animals to handling and injections. Dosing (day 0, mice at age 12 weeks as in pilot study) started in the afternoon on that day, and the mice were treated twice daily with 2 SC injections according to Table 1 for a total of 21 days (4 injections per day). Thus, last day of dosing was day 21 in the morning. The daily injections took place between 7:00 and 8:00 and between 14:00 and 15:00 with fresh solutions prepared in the morning (only Compound X). Insulin was kept in the refrigerator. […]
On day 21 (before termination) in 8 h fasted mice a blood sample (350 μl) was taken, and BG, HbA1c, and p-insulin were measured as described above. […]
The whole blood glucose level was analyzed on tail-blood samples by the immobilized glucose oxidase method (Elite Auto analyser, Bayer, Denmark) following the manufacturer's protocol. Blood samples (sample size 30 μl) were analyzed for HbA1c using the Cobas c111 analyzer (Roche Diagnostics, Mannheim, Germany) in single determinations by Department of Molecular Pharmacology. Plasma (sample size 5 μl) and insulin content was measured using an insulin alpha-LISA assay in triplicate by Department of Molecular Pharmacology. A measure of peptide exposure in plasma (sample size 100 μl) will be determined by the Department of Bioanalysis and Pharmacokinetics. […]

Numbered stars: 1 amine (or outer) side, 2 acyl side, 3 side chain; on linkers, the order of the positions; unused ones are H or OH. Square brackets hold non-standard residues; d marks the D form. Side chains are listed from the residue outwards. * marks the point of attachment. γGlu = O=C(O)[C@H](CCC(=O)[*:2])N[*:1]; Palmitoyl = CCCCCCCCCCCCCCCC(=O)*; Aib = CC(C)(N)C(=O)O

Regarding “H-H-Aib-QGTFTSDYSKYLDS-K(Hexadecanoyl-isoGlu)-AAHDFVEWLLSA-NH2 (H-H[Aib]QGTFTSDYSKYLDSK([γGlu-Palmitoyl])AAHDFVEWLLSA-NH2; SMILES CCCCCCCCCCCCCCCC(=O)N[C@@H](CCC(=O)NCCCC[C@H](NC(=O)[C@H](CO)NC(=O)[C@H](CC(=O)O)NC(=O)[C@H](CC(C)C)NC(=O)[C@H](Cc1ccc(O)cc1)NC(=O)[C@H](CCCCN)NC(=O)[C@H](CO)NC(=O)[C@H](Cc1ccc(O)cc1)NC(=O)[C@H](CC(=O)O)NC(=O)[C@H](CO)NC(=O)[C@@H](NC(=O)[C@H](Cc1ccccc1)NC(=O)[C@@H](NC(=O)CNC(=O)[C@H](CCC(N)=O)NC(=O)C(C)(C)NC(=O)[C@@H](N)Cc1c[nH]cn1)[C@@H](C)O)[C@@H](C)O)C(=O)N[C@@H](C)C(=O)N[C@@H](C)C(=O)N[C@@H](Cc1c[nH]cn1)C(=O)N[C@@H](CC(=O)O)C(=O)N[C@@H](Cc1ccccc1)C(=O)N[C@H](C(=O)N[C@@H](CCC(=O)O)C(=O)N[C@@H](Cc1c[nH]c2ccccc12)C(=O)N[C@@H](CC(C)C)C(=O)N[C@@H](CC(C)C)C(=O)N[C@@H](CO)C(=O)N[C@@H](C)C(N)=O)C(C)C)C(=O)O) [Compound X, acylated glucagon analogue, glucagon-GLP-1 dual agonist]”, the “body weight (BW) change” value in experiment [1] is reported as “significant decrease”. With Insulin detemir [Levemir], in experiment [2], the “delta-BG (delta-Blood Glucose)” value is -2.1 ± 1.6 mM. For the same substance, the “body weight (BW) change” value in experiment [1] is “significant increase”.

As for Insulin glargine [Lantus], in experiment [2], the “delta-BG (delta-Blood Glucose)” value is -9.6 ± 1.9 mM. For the same substance, the “body weight (BW) change” value in experiment [1] was “significant increase”.
